Where “and” joins values, the source holds several entries; their conditions need not be identical. Equal entries are not always repeated.
Experiments:
Type in all cases: in vivo
[1] = tested on: expert tasters; test: Expert taster comparison, model beverage: water, 95 ppm sucralose, 2% cellobiose vs base
Experimental: (§1) Samples were evaluated by a panel of 8 expert tasters. Tasters were asked to compare the base (95 ppm of sucralose) with the model beverage (water, 95 ppm of sucralose, 2% cellobiose) focusing on the overall quality of sweetness, particularly on the enhancement of the upfront sweetness, overall sweetness intensity.

[2] = tested on: expert tasters; test: Expert taster comparison, lemon lime beverage (water, sodium benzoate, 180 ppm Reb-A, citric acid) with 4% cellobiose vs base, panel of 8 (Example 12); conditions: 2000 ppm sodium benzoate, 500 ppm citric acid, 850 ppm lemon lime flavor
Experimental: as §1, with “(water, 2000” for “(95”, “sodium benzoate, 180 ppm Reb-A, 500 ppm citric acid, 850 ppm lemon lime flavor)” for “of sucralose)”, “2000” for “95”, “sodium Benzoate, 180 ppm Reb-A, 500 ppm citric acid, 850 ppm lemon lime flavor, 4%” for “of sucralose, 2%”

[3] = tested on: expert tasters; test: Expert taster comparison, model beverage: water, 200 ppm sucralose, 2% cellobiose vs base
Experimental: as §1, with “7” for “8”, “(200” for “(95”, “200” for “95”

[4] = tested on: expert tasters; test: Expert taster comparison, carbonated lemon lime beverage (sodium benzoate, 90 ppm Sucralose, citric acid) with 4% cellobiose vs base; conditions: carbonated water, 2000 ppm sodium benzoate, 500 ppm citric acid, 850 ppm lemon lime flavor
Experimental: (§2) Samples were evaluated by a panel of 7 expert tasters. Tasters were asked to compare the base (carbonated water, 2000 ppm sodium benzoate, 90 ppm Sucralose, 500 ppm citric acid, 850 ppm lemon lime flavor) with the model beverage (water, 2000 ppm sodium benzoate, 90 ppm Sucralose, 500 ppm citric acid, 850 ppm lemon lime flavor, 4% cellobiose) focusing on the overall quality of sweetness, particularly on the enhancement of the upfront sweetness, overall sweetness intensity.

[5] = tested on: expert tasters; test: Expert taster comparison, plain zero-fat yoghurt with 90 ppm sucralose and 4% cellobiose vs base; conditions: 90 ppm sucralose
Experimental: (§3) In a plain zero-fat yoghurt, sweetened with sucralose (90 ppm), cellobiose was tested at 4% for sweetness enhancement. Samples were evaluated by a panel of 6 expert tasters. Tasters were asked to compare the base (plain yoghurt+90 ppm sucralose) with the model yoghurt (plain yoghurt, 90 ppm sucralose, 4% cellobiose) focusing on the overall quality of sweetness.

[6] = Sweetness and mouthfeel equivalence of sucrose + cellobiose solutions to sucrose solutions (general statement)
[7] = tested on: expert tasters; test: Expert taster comparison, model beverage: water, 5% sucrose, 2% cellobiose vs base
Experimental: as §1, with “13” for “8”, “(water with 5%” for “(95 ppm”, “sucrose)” for “sucralose)”, “5%” for “95 ppm”, “sucrose, and” for “sucralose,”

[8] = tested on: expert tasters; test: Expert taster comparison, plain zero-fat yoghurt with 180 ppm RebA and 4% cellobiose vs base; conditions: 180 ppm RebA
Experimental: Yoghurt RebA 180 ppm+4% cellobiose
as §3, with “rebaudioside A (180” for “sucralose (90”, “yoghurt+180” for “yoghurt+90”, “RebA)” for “sucralose)”, “180” for “90”, “RebA” for “sucralose,”

[9] = tested on: expert tasters; test: Expert taster comparison, lemon lime beverage (water, sodium benzoate, 180 ppm Reb-A, citric acid) with 4% cellobiose vs base, panel of 7 (Example 11); conditions: 2000 ppm sodium benzoate, 500 ppm citric acid, 850 ppm lemon lime flavor
Experimental: Samples were evaluated by a panel of 7 expert tasters. Tasters were asked to compare the base (water, 2000 ppm sodium benzoate, 180 ppm Reb-A, 500 ppm citric acid, 850 ppm lemon lime flavor) with the model beverage (water, 2000 ppm sodium Benzoate, 180 ppm Reb-A, 500 ppm citric acid, 850 ppm lemon lime flavor, 4% cellobiose) focusing on the overall quality of sweetness, particularly on the enhancement of the upfront sweetness, overall sweetness intensity.

[10] = tested on: sweet sensitive panelists; test: Ranking of 4% cellobiose against sucrose standards (1% and 1.5%) in water for overall sweetness intensity, r-index analysis
From the text: 20 sweet sensitive panelists ranked 4% cellobiose and sucrose standards (1% and 1.5%) for overall sweetness intensity over 2 replications for a total of 40 observations.

[11] = tested on: trained panelists; test: Descriptor scoring (overall, upfront, delayed, lingering sweet; 100-point scale) of 80 ppm Reb-A in water with 4% cellobiose
Experimental: The test was carried out by a panel of 14 trained panelists. The panelists scored 4 descriptors (overall sweet, upfront sweet, delayed sweet and lingering sweet) on a 100-point scale over 4 replications for a total of […].

[12] = tested on: expert tasters; test: Expert taster comparison, lemon lime beverage (water, sodium benzoate, 90 ppm sucralose, citric acid) with 4% cellobiose vs base; conditions: 2000 ppm sodium benzoate, 500 ppm citric acid, 850 ppm lemon lime flavor
Experimental: as §2, with “6” for “7”, “(water,” for “(carbonated water,”, “sucralose,” for “Sucralose,”

[13] = tested on: expert tasters; test: Expert taster comparison, model beverage: water, 5% sucrose, 0.1% cellobiose vs base
Experimental: as §1, with “9” for “8”, “(water with 5%” for “(95 ppm”, “sucrose)” for “sucralose)”, “5%” for “95 ppm”, “sucrose, and 0.1%” for “sucralose, 2%”

[14] = tested on: sweet sensitive panelists; test: Ranking of 5% sucrose+4% cellobiose against sucrose standards (6%, 7% and 8%) in water for overall sweetness intensity, r-index analysis; conditions: 4% cellobiose in combination with 5% sucrose
From the text: 20 sweet sensitive panelists rank ranked 5% sucrose+4% cellobiose and sucrose standards (6%, 7% and 8%) in water for overall sweetness intensity over 2 replications for a total of 40 observations. […] The expected sucrose equivalence (SE) of 4% cellobiose on top of 5% sucrose would be 6.25% (1.25%+5%) but the perceived SE was 7%, showing true sweetness enhancement.

[15] = tested on: expert tasters; test: Expert taster comparison, model beverage: water, 7% sucrose, 2% cellobiose vs base
Experimental: as §1, with “6” for “8”, “(water with 7%” for “(95 ppm”, “sucrose)” for “sucralose)”, “7%” for “95 ppm”, “sucrose, and” for “sucralose,”

[16] = 4% cellobiose added to 80 ppm Reb-A in water, vs unaltered 80 ppm Reb-A base

Q: With OC[C@H]1O[C@@H](O[C@H]2[C@H](O)[C@@H](O)C(O)O[C@@H]2CO)[C@H](O)[C@@H](O)[C@@H]1O (mixture of isomers) [cellobiose] as the compound, how does the mouthfeel [1] read?
A: better mouthfeel

Q: And the offnotes [1]?
A: decreased offnotes

Q: What about the profile [1] of the same compound?
A: rounded profile

Q: And the sweetness enhancement [1]?
A: significant sweetness enhancement

Q: And the upfront sweetness enhancement [1]?
A: upfront sweetness enhancement

Q: And the aroma profile [2]?
A: rounded aroma profile

Q: What about the mouthfeel [2] of the same compound?
A: improved mouthfeel

Q: What about the sweetness enhancement [2] of the same compound?
A: significant sweetness enhancement

Q: And the upfront sweetness enhancement [2]?
A: upfront sweetness enhancement

Q: And the mouthfeel [3]?
A: better mouthfeel

Q: And the offnotes [3]?
A: decreased offnotes

Q: What about the profile [3] of the same compound?
A: rounded profile

Q: What about the sweetness enhancement [3] of the same compound?
A: significant sweetness enhancement

Q: And the upfront sweetness enhancement [3]?
A: upfront sweetness enhancement

Q: And the aroma profile [4]?
A: rounded aroma profile

Q: And the mouthfeel [4]?
A: improved mouthfeel

Q: And the sweetness enhancement [4]?
A: significant sweetness enhancement

Q: What about the upfront sweetness enhancement [4] of the same compound?
A: upfront sweetness enhancement

Q: What about the “balance and quality of sweetness” value [5] of the same compound?
A: significantly improved balance and quality of sweetness

Q: What about the sweetness [5] of the same compound?
A: much sweeter

Q: What about the “sucrose solution of similar sweetness and mouthfeel characteristics” value ([6]; solution of 2% sucrose and 4% cellobiose) of the same compound?
A: ~4 % sucrose

Q: And the “sucrose solution of very similar taste” value ([6]; solution of 5% sucrose+4% cellobiose)?
A: ~7 % sucrose

Q: And the “sucrose solution of very similar taste” value ([6]; solution of 7% sucrose+4% cellobiose)?
A: ~9 % sucrose

Q: What about the mouthfeel [7] of the same compound?
A: better mouthfeel

Q: What about the profile [7] of the same compound?
A: rounded profile

Q: And the sweetness enhancement [7]?
A: significant sweetness enhancement

Q: And the upfront sweetness enhancement [7]?
A: upfront sweetness enhancement

Q: And the “overall balance and quality of sweetness” value [8]?
A: significantly better overall balance and quality of sweetness

Q: What about the sweetness [8] of the same compound?
A: much sweeter

Q: And the aroma profile [9]?
A: rounded aroma profile

Q: What about the mouthfeel [9] of the same compound?
A: improved mouthfeel

Q: And the sweetness enhancement [9]?
A: significant sweetness enhancement

Q: What about the upfront sweetness enhancement [9] of the same compound?
A: upfront sweetness enhancement

Q: What about the “sweetness rated as sweet as sucrose” value ([10]; 4% cellobiose) of the same compound?
A: 1.25 % sucrose

Q: And the “inherent sweetness on its own” value ([10]; 4% cellobiose in water)?
A: not inherently sweet

Q: And the “overall sweetness intensity relative to sucrose standards” value ([10]; 4% cellobiose in water, r-index analysis, 95% confidence level, p-value<0.05)?
A: < 1.5 % sucrose and > 1.0 % sucrose

Q: And the delayed sweetness [11, 16]?
A: significantly decreased

Q: And the lingering sweetness [11, 16]?
A: significantly decreased

Q: What about the overall sweetness [11, 16] of the same compound?
A: significantly increased

Q: What about the upfront sweetness [11, 16] of the same compound?
A: significantly increased

Q: And the upfront sweetness ([11]; 80 ppm Reb-A and 4% cellobiose, vs isosweet 150 ppm Reb-A sample)?
A: significantly increased

Q: What about the “Reb-A aqueous solution of the same sweetness” value ([11]; aqueous solution of 80 ppm Reb-A and 4% cellobiose) of the same compound?
A: 150 ppm Reb-A

Q: What about the aroma profile [12] of the same compound?
A: rounded aroma profile

Q: And the sweetness enhancement [12]?
A: significant sweetness enhancement

Q: And the upfront sweetness enhancement [12]?
A: upfront sweetness enhancement

Q: What about the profile [13] of the same compound?
A: rounded profile

Q: And the sweetness enhancement [13]?
A: significant sweetness enhancement

Q: What about the sweetness enhancement [14] of the same compound?
A: sweetness enhancement beyond an additive effect

Q: What about the profile [15] of the same compound?
A: rounded profile

Q: What about the sweetness enhancement [15] of the same compound?
A: significant sweetness enhancement

Q: What about the upfront sweetness enhancement [15] of the same compound?
A: upfront sweetness enhancement

Reference: patent publication US11071317B2, “Sweetness enhancement” (Givaudan, S.A., priority 2015, dated 2021)
